Measurements reported in ChEMBL document CHEMBL1201862, “PubChem BioAssay data set” (2004).
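Dose response: 5 concentrations. Exposure: 48 h. Format: 96-well plates. Endpoint: linear interpolation; highest concentration if not reached. GI50 marks 50% less growth.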 Calls of active or inactive are those of the source. Rule as the data show it: active = GI50 up to about 1.1 µM and inactive = higher.

Tests used:
Assay in all cases: growth of human tumour cells (NCI), 48 h
SW-620 = system: SW-620
A549 = system: A549
DMS-273 = system: DMS-273
SNB-19 = system: SNB-19
CAKI-1 = system: CAKI-1
K562 = system: K562
HCT-116 = system: HCT-116
OVCAR-3 = system: OVCAR-3
NCI-H522 = system: NCI-H522
EKVX = system: EKVX
SK-OV-3 = system: SK-OV-3
A498 = system: A498
OVCAR-8 = system: OVCAR-8
NCI-H226 = system: NCI-H226
RPMI-8226 = system: RPMI-8226
UACC-62 = system: UACC-62
SN12C = system: SN12C
HOP-92 = system: HOP-92
Hs-578T = system: Hs-578T
DU-145 = system: DU-145

Compound | GI50 (SW-620) | GI50 (A549) | GI50 (DMS-273) | GI50 (SNB-19) | GI50 (CAKI-1) | GI50 (K562) | GI50 (HCT-116) | GI50 (OVCAR-3) | GI50 (NCI-H522) | GI50 (EKVX) | GI50 (SK-OV-3) | GI50 (A498) | GI50 (OVCAR-8) | GI50 (NCI-H226) | GI50 (RPMI-8226) | GI50 (UACC-62) | GI50 (SN12C) | GI50 (HOP-92) | GI50 (Hs-578T) | GI50 (DU-145)
CCO/C([O-])=C(\C(=O)c1ccc([N+](=O)[O-])cc1)[n+]1c(C)n(C)c2ccccc21 | > 100 µM (inactive) | > 100 µM (inactive) | > 100 µM (inactive) | > 100 µM (inactive) | > 100 µM (inactive) | > 100 µM (inactive) | > 100 µM (inactive) | > 100 µM (inactive) | > 100 µM (inactive) | > 100 µM (inactive) | > 100 µM (inactive) | > 100 µM (inactive) | > 100 µM (inactive) | > 100 µM (inactive) | > 100 µM (inactive) | > 100 µM (inactive) |  |  |  | 
N#Cc1c(C[n+]2ccccc2)c2ccccc2oc1=O | > 100 µM (inactive) | > 100 µM (inactive) | > 100 µM (inactive) | > 100 µM (inactive) | > 100 µM (inactive) | > 100 µM (inactive) | > 100 µM (inactive) | > 100 µM (inactive) | > 100 µM (inactive) | > 100 µM (inactive) | > 100 µM (inactive) |  | > 100 µM (inactive) | > 100 µM (inactive) | > 100 µM (inactive) | > 100 µM (inactive) | > 100 µM (inactive) |  |  | 
Nc1ccc(C(=O)N/C(=C\c2ccc3c(c2)OCO3)c2nc3ccccc3s2)cc1 | 11.5 µM (inactive) | 15.5 µM (inactive) | 16.8 µM (inactive) | 15.2 µM (inactive) | 15.9 µM (inactive) | 5.38 µM (inactive) |  | 16.9 µM (inactive) | 13.8 µM (inactive) | 12.9 µM (inactive) | 21.3 µM (inactive) |  | 14.2 µM (inactive) |  |  | 14.4 µM (inactive) | 13 µM (inactive) | 12.3 µM (inactive) |  | 
CCOC(=O)C(=O)Nc1c(C)cccc1C | > 100 µM (inactive) | > 100 µM (inactive) | > 100 µM (inactive) | > 100 µM (inactive) | > 100 µM (inactive) |  | > 100 µM (inactive) | > 100 µM (inactive) |  | > 100 µM (inactive) | > 100 µM (inactive) |  | > 100 µM (inactive) | > 100 µM (inactive) | > 100 µM (inactive) | > 100 µM (inactive) | > 100 µM (inactive) | > 100 µM (inactive) |  | 
CCCCCCCCCC(=O)OCC1OC(n2cc(F)c(=O)[nH]c2=O)C(NC(=O)OCc2ccccc2)C(OC(=O)CCCCCCCCC)C1O (configuration not stated) | 26.4 µM (inactive) | 26.1 µM (inactive) | 36.8 µM (inactive) | 33.6 µM (inactive) | > 100 µM (inactive) | 30.1 µM (inactive) | 14.9 µM (inactive) | 21.2 µM (inactive) | 20.9 µM (inactive) | 31.6 µM (inactive) | > 100 µM (inactive) | 25.1 µM (inactive) | 24.3 µM (inactive) |  | 21.4 µM (inactive) | 44.2 µM (inactive) | 15.8 µM (inactive) | 18.2 µM (inactive) |  | 
CN(C)C(=S)/N=c1\ssc(=S)n1Cc1ccncc1 | 16.5 µM (inactive) | 33.3 µM (inactive) | 16.4 µM (inactive) | 29.2 µM (inactive) | 18.9 µM (inactive) | 18.3 µM (inactive) | 18.3 µM (inactive) | 13.3 µM (inactive) | 1.49 µM (inactive) | 22.8 µM (inactive) | 25.2 µM (inactive) | 36.2 µM (inactive) | 23.1 µM (inactive) | > 100 µM (inactive) |  | 10 µM (inactive) | > 100 µM (inactive) |  |  | 
O=C(NCCNCCO)c1cccc2ccc(-c3ccccc3)nc12 | 3.15 µM (inactive) | 2.93 µM (inactive) | 3.86 µM (inactive) | 6.49 µM (inactive) | 3.38 µM (inactive) | 5.97 µM (inactive) | 2.73 µM (inactive) | 7.66 µM (inactive) |  | 5.94 µM (inactive) | 8.13 µM (inactive) | 1.8 µM (inactive) | 4.42 µM (inactive) | 4.46 µM (inactive) |  | 4.54 µM (inactive) | 3.97 µM (inactive) | 3.18 µM (inactive) |  | 
CCCCc1c2c([n+]([O-])c3c1CCCC3)CCCC2 | > 100 µM (inactive) | > 100 µM (inactive) | 96.6 µM (inactive) | 44.4 µM (inactive) |  | 3.56 µM (inactive) | 65.2 µM (inactive) | 31 µM (inactive) | 2 µM (inactive) | > 100 µM (inactive) | 98.4 µM (inactive) |  | > 100 µM (inactive) | > 100 µM (inactive) | 50.8 µM (inactive) |  | > 100 µM (inactive) |  |  | 
CN(C)CCC(/C=C/c1ccccc1)=N\Nc1ccc(Cl)cc1Cl | 14 µM (inactive) | 15.6 µM (inactive) | 13.2 µM (inactive) | 15.5 µM (inactive) |  | 13.1 µM (inactive) | 14.5 µM (inactive) | 14.1 µM (inactive) | 15.3 µM (inactive) | 15 µM (inactive) | 10.8 µM (inactive) | 16.6 µM (inactive) | 16.3 µM (inactive) |  | 11.7 µM (inactive) | 9.35 µM (inactive) | 11.1 µM (inactive) |  |  | 
Cc1cc([N+](=O)[O-])ccc1Sc1c2ccccc2nc2cc(Cl)ccc12 | 31.2 µM (inactive) | 46.5 µM (inactive) | 26.9 µM (inactive) | 41.3 µM (inactive) | 26.2 µM (inactive) | 36.1 µM (inactive) | 28.1 µM (inactive) | 28.3 µM (inactive) | 27.7 µM (inactive) | 40.6 µM (inactive) | 47.2 µM (inactive) | > 100 µM (inactive) | 21.8 µM (inactive) | 61.5 µM (inactive) |  | 34.5 µM (inactive) | 30.8 µM (inactive) | 23.4 µM (inactive) |  | 
CC1=C(c2nc3ccccc3s2)C(=O)OC1(C)C | > 100 µM (inactive) | > 100 µM (inactive) | > 100 µM (inactive) | > 100 µM (inactive) | > 100 µM (inactive) | > 100 µM (inactive) | > 100 µM (inactive) | > 100 µM (inactive) | > 100 µM (inactive) | > 100 µM (inactive) | > 100 µM (inactive) |  | > 100 µM (inactive) | > 100 µM (inactive) | > 100 µM (inactive) | > 100 µM (inactive) | > 100 µM (inactive) |  |  | 
O=C(O)C1=CN(c2ccncc2)C(c2ccco2)=CC1c1ccccc1[N+](=O)[O-] (configuration not stated) | 10.2 µM (inactive) | 15.6 µM (inactive) |  | 12.5 µM (inactive) | 16.5 µM (inactive) | 2.58 µM (inactive) | 1.96 µM (inactive) | 7 µM (inactive) | 3.22 µM (inactive) | 6.58 µM (inactive) | 16.3 µM (inactive) | 13 µM (inactive) | 17.3 µM (inactive) | 4.72 µM (inactive) | 2.67 µM (inactive) | 15.6 µM (inactive) | 13.6 µM (inactive) | 11.9 µM (inactive) | 14.4 µM (inactive) | 13.5 µM (inactive)
CC(C)OC(=O)C(NC(=O)C(CC(=O)OCc1ccccc1)NC(=O)OCc1ccccc1)NC(=O)C1C(C)(C)CCC1(C)C (configuration not stated) | 3.23 µM (inactive) | 2.22 µM (inactive) |  | 4.29 µM (inactive) | 9.98 µM (inactive) | 4.31 µM (inactive) | 3.61 µM (inactive) | 2.77 µM (inactive) | 11.6 µM (inactive) | 3.85 µM (inactive) | 4.18 µM (inactive) | 2.5 µM (inactive) | 2 µM (inactive) | 7.21 µM (inactive) | 7.5 µM (inactive) | 20.7 µM (inactive) | 3.84 µM (inactive) | 11 µM (inactive) | 6.98 µM (inactive) | 22.9 µM (inactive)
Cc1ccsc1C(=S)Nc1ccc(Cl)c(C(=O)OC(C(C)C)C(C)C)c1 | 18.9 µM (inactive) | 12.2 µM (inactive) |  | 25.5 µM (inactive) | 19.5 µM (inactive) | 3.97 µM (inactive) | 12.1 µM (inactive) | 14 µM (inactive) | 11.4 µM (inactive) | 23.2 µM (inactive) | 28.2 µM (inactive) | 27.2 µM (inactive) | 21.3 µM (inactive) | 29 µM (inactive) | 10.6 µM (inactive) | 21 µM (inactive) | 24.8 µM (inactive) | 16.3 µM (inactive) | 39.4 µM (inactive) | 33 µM (inactive)
CC(OCc1ccccc1)C(NC(=O)C1CSSCC(NC(=O)C(Cc2ccccc2)NC(=O)OCc2ccccc2)C(=O)NC(Cc2ccccc2)C(=O)NC(Cc2cn(C=O)c3ccccc23)C(=O)NC(CCCCNC(=O)OCc2ccccc2)C(=O)NC(C(C)OCc2ccccc2)C(=O)N1)C(N)=O (configuration not stated) | 13.4 µM (inactive) | > 79.3 µM (inactive) |  | 36.7 µM (inactive) | 46 µM (inactive) | 16.4 µM (inactive) | 17.7 µM (inactive) | 14 µM (inactive) | 17.4 µM (inactive) | > 83.2 µM (inactive) | > 35.2 µM (inactive) | 27.3 µM (inactive) | 75.2 µM (inactive) | > 75 µM (inactive) | 5.04 µM (inactive) | 72.6 µM (inactive) | > 100 µM (inactive) | 38.3 µM (inactive) | > 74.8 µM (inactive) | 30.5 µM (inactive)
COC(=O)C1=C(C)NC(C)=C(C(=O)OC)C1c1ccc(NO)cc1 | 4.09 µM (inactive) | 18.2 µM (inactive) |  | 24.6 µM (inactive) | 13 µM (inactive) | 1.86 µM (inactive) | 7.59 µM (inactive) | 12.9 µM (inactive) | 0.891 µM (active) | 19.5 µM (inactive) | 23.4 µM (inactive) | 29.8 µM (inactive) | 10.2 µM (inactive) | 17.3 µM (inactive) | 1.73 µM (inactive) | 13 µM (inactive) | 18.7 µM (inactive) | 2.68 µM (inactive) | 10.8 µM (inactive) | 19.1 µM (inactive)
